# Key:
# [1] = system: antibodies in sera from SARS patients (sera 1a, 1b, 2, 6, 37, 62, London, SARS-yellow, SARS-green); type: binding, human; parameters: Binding of serum 6 to linear peptides of protein X1 of SARS-CoV Urbani / Binding of serum 37 to linear peptides of protein X1 of SARS-CoV Urbani / Binding of serum 6 to looped/cyclic peptide (PEPSCAN-ELISA) / Binding of serum 37 to looped/cyclic peptide (PEPSCAN-ELISA) / Binding of serum 37 to looped/cyclic peptides of protein X1 of SARS-CoV Urbani / Binding of serum 6 to linear peptides of protein X2 / Binding of serum 37 to linear peptides of protein X2 / Binding of serum 37 to looped/cyclic peptides of protein X2 of SARS-CoV Urbani / Binding of serum 6 to linear peptides of protein M of SARS-CoV Urbani / Binding of serum 37 to linear peptides of protein M of SARS-CoV Urbani / Binding of serum 6 to looped/cyclic peptides of protein M of SARS-CoV Urbani / Binding of serum 37 to looped/cyclic peptides of protein M of SARS-CoV Urbani / Binding of serum 6 to linear peptides of protein X3 of SARS-CoV Urbani / Binding of serum 37 to linear peptides of protein X3 of SARS-CoV Urbani / Binding of serum 37 to looped/cyclic peptides of protein X3 of SARS-CoV Urbani / Binding of serum 6 to linear peptides of protein X4 of SARS-CoV Urbani / Binding of serum 37 to linear peptides of protein X4 of SARS-CoV Urbani / Binding of serum 37 to looped/cyclic peptides of protein X4 of SARS-CoV Urbani / Binding of serum 6 to linear peptides of protein X5 of SARS-CoV Urbani / Binding of serum 37 to linear peptides of protein X5 of SARS-CoV Urbani / Binding of serum 37 to looped/cyclic peptides of protein X5 of SARS-CoV Urbani / Binding of serum 6 to linear peptides of protein N of SARS-CoV Urbani / Binding of serum 37 to linear peptides of protein N of SARS-CoV Urbani / Binding of serum 6 to linear peptide (PEPSCAN-ELISA) / Binding of serum 1a to looped/cyclic peptides of protein N of SARS-CoV Urbani / Binding of serum 1b to looped/cyclic peptides of protein N of SARS-CoV Urbani / Binding of serum 2 to looped/cyclic peptides of protein N of SARS-CoV Urbani / Binding of serum 6 to looped/cyclic peptides of protein N of SARS-CoV Urbani / Binding of serum 37 to looped/cyclic peptides of protein N of SARS-CoV Urbani / Binding of serum 62 to looped/cyclic peptides of protein N of SARS-CoV Urbani / Binding of serum London to looped/cyclic peptides of protein N of SARS-CoV Urbani / Binding of serum SARS-green to looped/cyclic peptides of protein N of SARS-CoV Urbani: unit not given here
# [2] = system: control sera (pooled serum of ten healthy LUMC hospital workers; commercial negative donor pooled serum from the Dutch bloodbank); type: binding, human; parameters: Binding of Control serum LUMC to linear peptides / Binding of Control serum Blood-bank to linear peptides / Binding of Control serum LUMC to looped peptides / Binding of Control Serum Blood-Bank to Looped peptides / Binding of Control serum LUMC to linear peptides of the protein M of SARS-CoV Urbani / Binding of Control serum Blood-bank to linear peptides of the protein M of SARS-CoV Urbani / Binding of Control serum LUMC to looped peptides of the protein M of SARS-CoV Urbani / Binding of Control Serum Blood-Bank to Looped peptides of the protein M of SARS-CoV Urbani: unit not given here
# [3] = system: rabbit serum obtained by immunizing a rabbit with the SARS-CoV strain Frankfurt 1; type: binding; parameters: Binding of a rabbit serum to linear peptides / Binding of a rabbit serum to looped peptides / Rabbit serum linear peptides / Rabbit serum looped peptides / Binding of a rabbit serum to linear peptides of protein N of SARS-CoV Urbani (Rabbit serum linear peptides) / Binding of a rabbit serum to looped/cyclic peptides of protein N of SARS-CoV Urbani (Rabbit serum looped peptides): unit not given here
# [4] = system: recombinant human anti-SARS-CoV antibody 03-018; type: binding; parameters: Binding of antibody 03-018 to linear peptides of the N protein of SARS-CoV Urbani / Binding of antibody 03-018 to looped/cyclic peptides of the N protein of SARS-CoV Urbani: unit not given here
Sequence,Binding of serum 1a to linear peptides of protein N of SARS-CoV Urbani [1],Binding of serum 1a to looped/cyclic peptides of protein N of SARS-CoV Urbani [1],Binding of serum 1b to linear peptides of protein N of SARS-CoV Urbani [1],Binding of serum 1b to looped/cyclic peptides of protein N of SARS-CoV Urbani [1],Binding of serum 2 to linear peptides of protein N of SARS-CoV Urbani [1],Binding of serum 2 to looped/cyclic peptides of protein N of SARS-CoV Urbani [1],Binding of serum 6 to linear peptides of protein N of SARS-CoV Urbani [1],Binding of serum 6 to looped/cyclic peptides of protein N of SARS-CoV Urbani [1],Binding of serum 37 to linear peptides of protein N of SARS-CoV Urbani [1],Binding of serum 37 to looped/cyclic peptides of protein N of SARS-CoV Urbani [1],Binding of serum 62 to linear peptides of protein N of SARS-CoV Urbani [1],Binding of serum 62 to looped/cyclic peptides of protein N of SARS-CoV Urbani [1],Binding of serum London to linear peptides of protein N of SARS-CoV Urbani [1],Binding of serum London to looped/cyclic peptides of protein N of SARS-CoV Urbani [1],Binding of serum SARS-green to looped/cyclic peptides of protein N of SARS-CoV Urbani [1],Binding of serum SARS-yellow to looped/cyclic peptides of protein N of SARS-CoV Urbani [1],Binding of a rabbit serum to linear peptides of protein N of SARS-CoV Urbani (Rabbit serum linear peptides) [3],Binding of a rabbit serum to looped/cyclic peptides of protein N of SARS-CoV Urbani (Rabbit serum looped peptides) [3],Binding of antibody 03-018 to linear peptides of the N protein of SARS-CoV Urbani [4],Binding of antibody 03-018 to looped/cyclic peptides of the N protein of SARS-CoV Urbani [4],further results
LNKHIDAYKTFPPTE,0.2,0.2,0.1,0.1,0.1,0.2,0.1,0.1,0.7,0.4,0.5,0.3,0.4,0.3,0.2,0.1,0.1,0.4,0.1,0.2,Binding of serum SARS-green to linear peptides of protein N of SARS-CoV Urbani [1]: 0.4; Binding of serum SARS-yellow to linear peptides of protein N of SARS-CoV Urbani [1]: 0.5; Control Serum Blood-Bank Looped peptides [2]: 0.4; Control serum Blood-bank linear peptides [2]: 0.5; Control serum LUMC linear peptides [2]: 0.5; Control serum LUMC looped peptides [2]: 0.4
LNQLESKVSGKGQQQ,,0.4,,0.3,,0.6,,0.4,,0.6,,0.6,,0.5,0.5,0.8,0.2,0.4,0.1,0.3,Binding of serum 1a to linear peptide (PEPSCAN-ELISA) [1]: 0.3; Binding of serum 1b to linear peptide (PEPSCAN-ELISA) [1]: 0.1; Binding of serum 2 to linear peptide (PEPSCAN-ELISA) [1]: 0.3; Binding of serum 6 to linear peptide (PEPSCAN-ELISA) [1]: 0.2; Binding of serum 37 to linear peptide (PEPSCAN-ELISA) [1]: 0.7; Binding of serum 62 to linear peptide (PEPSCAN-ELISA) [1]: 0.9; Binding of serum London to linear peptide (PEPSCAN-ELISA) [1]: 0.6; Binding of serum SARS-green to linear peptide (PEPSCAN-ELISA) [1]: 0.4; Binding of serum SARS-yellow to linear peptide (PEPSCAN-ELISA) [1]: 0.7; Binding of Control Serum Blood-Bank to Looped peptides [2]: 0.7; Binding of Control serum Blood-bank to linear peptides [2]: 0.8; Binding of Control serum LUMC to linear peptides [2]: 0.7; Binding of Control serum LUMC to looped peptides [2]: 0.7
LNTPKDHIGTRNPNN,0.2,0.4,0.1,0.3,0.3,0.4,0.2,0.3,0.7,0.6,0.6,0.5,0.5,0.5,0.4,0.4,0.2,0.0,0.1,0.2,Binding of serum SARS-green to linear peptides of protein N of SARS-CoV Urbani [1]: 0.2; Binding of serum SARS-yellow to linear peptides of protein N of SARS-CoV Urbani [1]: 0.6; Binding of Control Serum Blood-Bank to Looped peptides [2]: 0.5; Binding of Control serum Blood-bank to linear peptides [2]: 0.8; Binding of Control serum LUMC to linear peptides [2]: 0.6; Binding of Control serum LUMC to looped peptides [2]: 0.6

# Source: patent publication US20070128217A1 (priority 2003, published 2007)
